The values below are quoted from earlier work in US20080069870A1, “Controlled Release Compositions Comprising a Cephalosporin for the Treatment of a Bacterial Infection” (Elan Corporation Pic, priority 2005, published 2008).

For data set [1] the following is noted: oral administration, after meals vs before meals.

Like-named read-outs stand apart in the source and are kept apart here.

Regarding `CC/C=C(\C(=O)N[C@@H]1C(=O)N2C(C(=O)OCOC(=O)C(C)(C)C)=C(COC(N)=O)CS[C@H]12)c1csc(N)n1.Cl` [CFPN-PI, 2,2-Dimethylpropanoyloxymethyl (6R, 7R)-7-[(Z)-2-(2-aminothiazol-4-yl)pent-2-enylamino]-3-carabmoyloxymethyl-8-oxo-5-thia-1-azabicyclo[4.2.0]oct-2-ene-2-carboxylate monohydrochoride monohydrate], the absorption entry in data set [1] is given as “better after meals than before meals”. The solubility result reads like this: (in N, N-dimethylformamide) “freely soluble”; (in diethyl ether) “practically insoluble”; (in ethanol) “sparingly soluble”; (in methanol) “freely soluble”; (in water) “only slightly soluble”.
